Measurements taken from PubChem BioAssay (NCI).
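Step 1: Grow cells in 96-well plates. Step 2: Expose to compound for 48 hours at 5 concentrations. Step 3: Interpolate endpoints linearly; if unreached, use highest concentration. GI50 is the concentration that inhibits growth by half. TGI denotes the concentration required for complete inhibition of growth.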

Assays:
Test in all cases: NCI anticancer screen, dose series, 48 h
COLO 205 colon = system: COLO 205 colon
DU-145 prostate = system: DU-145 prostate
HT29 colon = system: HT29 colon
M14 melanoma = system: M14 melanoma
NCI-H460 lung = system: NCI-H460 lung
OVCAR-4 ovarian = system: OVCAR-4 ovarian
OVCAR-5 ovarian = system: OVCAR-5 ovarian
SF-539 CNS = system: SF-539 CNS
U251 CNS = system: U251 CNS
CCRF-CEM leukemia = system: CCRF-CEM leukemia

Structure (SMILES) | GI50 (COLO 205 colon) | TGI (COLO 205 colon) | GI50 (DU-145 prostate) | TGI (DU-145 prostate) | GI50 (HT29 colon) | TGI (HT29 colon) | GI50 (M14 melanoma) | TGI (M14 melanoma) | GI50 (NCI-H460 lung) | TGI (NCI-H460 lung) | GI50 (OVCAR-4 ovarian) | TGI (OVCAR-4 ovarian) | GI50 (OVCAR-5 ovarian) | TGI (OVCAR-5 ovarian) | GI50 (SF-539 CNS) | TGI (SF-539 CNS) | GI50 (U251 CNS) | TGI (U251 CNS) | TGI (CCRF-CEM leukemia) | GI50 (CCRF-CEM leukemia)
C=C(CN1CCN(c2ccc(F)c(Cl)c2)CC1)c1ccc(C(=O)Nc2ccccc2N)cc1 | > 100 µM | > 100 µM | 8.76 µM | 40.4 µM | 2.32 µM | > 100 µM | 2.65 µM | 11.6 µM | 5.08 µM | > 100 µM | > 100 µM | > 100 µM | 15.1 µM | > 100 µM | 5.79 µM | 26.2 µM | 4.42 µM | 23.7 µM |  | 
N#CC(C#N)C(c1ccccc1)c1ccccc1 |  | > 100 µM |  |  |  |  |  | > 100 µM |  | > 100 µM |  | > 100 µM |  | > 100 µM |  | > 100 µM |  | > 100 µM | > 100 µM | 
CC(CC(=O)Nc1ccc(NC(=O)CC(C)N=NC(N)=O)cc1)N=NC(N)=O (stereo not drawn) |  | > 100 µM |  |  |  | > 100 µM |  | > 100 µM |  | > 100 µM |  | > 100 µM |  | > 100 µM |  | > 100 µM |  | > 100 µM | > 100 µM | 
COC1CC(n2cc(F)c(N)nc2=O)OC1CO (stereo not drawn) |  | > 100 µM |  |  |  | > 100 µM |  | > 100 µM |  | > 100 µM |  | > 100 µM |  | > 100 µM |  |  |  | > 100 µM | > 100 µM | 
Cc1c(C2CCSc3ccccc3N2)sc2ccccc12 (stereo not drawn) |  | > 100 µM |  | > 100 µM |  | > 100 µM |  | > 100 µM |  | > 100 µM |  | > 100 µM |  |  |  | > 100 µM |  | > 100 µM |  | 
NC1=Nc2ccccc2Sc2ccccc21 |  | > 100 µM |  |  |  | > 100 µM |  | > 100 µM |  | > 100 µM |  | > 100 µM |  | > 100 µM |  | > 100 µM |  | > 100 µM | > 100 µM | 
CN(C)C(=S)/N=c1\ss/c(=N\S(=O)(=O)c2ccccc2)n1C |  |  |  |  |  | > 100 µM |  | > 100 µM |  | > 100 µM |  | > 100 µM |  | > 100 µM |  | > 100 µM |  | > 100 µM | > 100 µM | 
NC(=O)c1nc(-c2ccc(Cl)c(Cl)c2)nc2ccccc12 |  | > 100 µM |  |  |  | > 100 µM |  | > 100 µM |  | > 100 µM |  | > 100 µM |  | > 100 µM |  | > 95.5 µM |  | > 100 µM | > 100 µM | 
CC(=O)OC1=C(CC(C)(C)C)C(=O)c2ccccc2C1=O |  | 72.5 µM |  | > 100 µM |  | > 100 µM |  | > 100 µM |  | 79.3 µM |  | > 100 µM |  |  |  | > 100 µM |  | > 100 µM | 55.6 µM | 
CCN1CCC(O)(/C=C/c2ccccc2)C(C(=O)/C=C/c2ccccc2)C1 (stereo not drawn) |  | 3.49 µM |  |  |  | 3.73 µM |  | 4.13 µM |  | 4.03 µM |  | 8.01 µM |  | 8.38 µM |  | 3.76 µM |  | 6.67 µM |  | 
COC(=O)C(/C(=N\O)C(=O)Nc1ccc(Br)cc1)c1nc2ccccc2[nH]c1=O (stereo not drawn) |  | 37.5 µM |  |  |  | > 100 µM |  | > 100 µM |  | > 100 µM |  | > 100 µM |  | > 100 µM |  | 58.4 µM |  | > 100 µM | 72.9 µM | 
CC(=O)/C(=C/N1CCN(C(=O)c2ccco2)C1=S)C(=O)c1ccccc1 | 16.5 µM | 45.1 µM | 11 µM | 30.4 µM | 16.9 µM | > 50 µM | 6.32 µM | 13.1 µM | 7.04 µM | 22.9 µM | 20.1 µM | 37.4 µM |  |  | 1.09 µM | 3.56 µM | 13.4 µM | > 50 µM |  | 
Cn1cccc1-c1cc(-c2ccccc2)nc(N)c1C#N | > 100 µM | > 100 µM | 97.5 µM | > 100 µM | > 100 µM | > 100 µM | > 100 µM | > 100 µM | > 100 µM | > 100 µM | > 68.6 µM | > 100 µM | > 100 µM | > 100 µM | > 58.3 µM | > 100 µM | > 100 µM | > 100 µM |  | 
C#C[C@@H](CCCC)OC(=O)N[C@H](C)c1ccccc1 |  |  |  |  |  | > 100 µM |  | > 100 µM |  | > 100 µM |  | > 100 µM |  | > 100 µM |  |  |  | > 100 µM | > 100 µM | 
COC(=O)C(=O)C(C#N)c1c(Cl)cccc1Cl (stereo not drawn) |  | > 100 µM |  |  |  | > 100 µM |  | > 100 µM |  | > 100 µM |  | > 100 µM |  | > 100 µM |  | > 100 µM |  |  |  | 
O=[N+]([O-])c1ccc2nc(-c3ccc(Cl)cc3)[nH]c2c1 |  | 30.7 µM |  | 60.5 µM |  | 32.8 µM |  | 34.5 µM |  | 45.4 µM |  | > 100 µM |  |  |  | 39.6 µM |  |  |  | 
CC1=CC(=O)N2C(OC[C@@H]2c2ccccc2)O1 (stereo partly drawn) |  | > 100 µM |  |  |  | > 100 µM |  | > 100 µM |  | > 100 µM |  | > 100 µM |  |  |  | > 100 µM |  | > 100 µM | > 100 µM | 
Cc1nc(-n2nc(-c3ccccc3)cc2-c2ccccc2)sc1C(=O)/C=C/c1cccc([N+](=O)[O-])c1 |  | 30.8 µM |  |  |  | 28.1 µM |  |  |  | 92 µM |  |  |  | 50.9 µM |  | 22.8 µM |  | 32.5 µM | 44.4 µM | 
Cc1cn2cc(-c3ccc4c(c3)CC(=O)N4)nc2s1 | > 100 µM | > 100 µM | > 100 µM | > 100 µM | 85.5 µM | > 100 µM | > 100 µM | > 100 µM |  |  | > 100 µM | > 100 µM | > 100 µM | > 100 µM | > 100 µM | > 100 µM | > 100 µM | > 100 µM | > 100 µM | > 100 µM
CC1OC(=O)N2CCC=CC12 (stereo not drawn) |  | > 100 µM |  |  |  | > 100 µM |  |  |  | > 100 µM |  | > 100 µM |  | > 100 µM |  | > 100 µM |  | > 100 µM | > 100 µM | 
COc1cc([C@@H]2c3cc4c(cc3[C@@H](NCc3cccc(F)c3)C3COC(=O)[C@@H]32)OCO4)cc(OC)c1O (stereo partly drawn) |  | > 65 µM |  |  |  | 29.5 µM |  | 40.3 µM |  | 9.23 µM |  | > 65 µM |  | 51.3 µM |  | 10.8 µM |  | 7.11 µM | 18.1 µM | 
